Data: US4565811A, “Sodium salt of ursodeoxycholic sulphate” (Istituto Biologico Chemioterapico "ABC" S.p.A., priority 1983, dated 1986)
Like-named read-outs stand apart in the source and are kept apart here.

What was measured:
[1] = test system: hyperdislipidemia caused by Triton WR-1339 in the rat; experiment: Action on the hyperdislipidemia caused by Triton WR-1339 in the rat; format: in vivo, Albinus rats (Witar); conditions: for Alfa-Lipoproteins: Increase towards Group 2 / Beta-Lipoproteins: Inhibition towards Group 2 / Beta/alfa ratio: Inhibition towards Group 2 / Total cholesterol: Inhibition in comparison with Group 2 / Total lipids: Inhibition in comparison with Group 2 / Triglycerids: Inhibition in comparison with Group 2: vs Group 2 (Triton control)
Description: Action on the hyperdislipidemia caused by Triton WR-1339 in the rat
Albinus rats (Witar) of 300-320 g each, having been fed only with water "ad libitum" for 12 hours, were treated with US and UA, by oral route, 4 hours before and 15 hours after the administration intraperitenously of Triton WR-1339 at the dosage of 300 mg/kg in 10 ml/kg of physiologic solution at 0.9%.
US and UA dosages were 25, 50 and 100 mg/kg respectively and the rats were divided in the following groups of 10 animals each.
Group 1: Controls treated with 10 ml/kg of physiological solution at 0.9% orally.
Group 2: Controls treated with 300 mg/kg of Triton WR-1339 i.p. and 10 ml/kg of carboxy methyl cellulose (CMC) at 0.5%.
Group 3, 4 and 5: UA at 25, 50 and 100 mg/kg respectively suspended in 10 ml/kg of CMC at 0.5%.
Groups 6, 7 and 8: US at 25, 50 and 100 mg/kg respectively dissolved in 10 ml/kg of physiologic solution.
The following Tables 1 and 2 list the results of blood-tests from addominal aorta of rats sacrificed 5 hours after the last treatment: […]

[2] = known compounds; cited from earlier work
[3] = cited from earlier work
[4] = Solubility in water / acidity; format: physicochemical
[5] = 25 mg/kg os, Triton WR-1339 rat
[6] = 50 mg/kg os, Triton WR-1339 rat
[7] = 100 mg/kg os, Triton WR-1339 rat

C[C@H](CCC(=O)O)[C@H]1CC[C@H]2[C@@H]3[C@@H](O)C[C@@H]4C[C@H](O)CC[C@]4(C)[C@H]3CC[C@]12C [UA, ursodeoxycholic acid, reference compound]
Alfa-Lipoproteins Average ± SD [1, 5]: 27,6 ± 9,8 mg/100 ml serum | Beta-Lipoproteins Average ± SD [1, 5]: 221,17 ± 38,4 mg/100 ml serum | Beta/alfa ratio Average ± SD [1, 5]: 8,95 ± 3,5 mg/100 ml serum | Total cholesterol Average ± SD [1, 5]: 244,8 ± 34,5 mg/100 ml serum | Total lipids Average ± SD [1, 5]: 3011,4 ± 513,6 mg/100 ml serum | Triglycerids Average ± SD [1, 5]: 1167,14 ± 180,5 mg/100 ml serum | Alfa-Lipoproteins: Increase towards Group 2 ([1]; 25 mg/kg os): +23,2% | Beta-Lipoproteins: Inhibition towards Group 2 ([1]; 25 mg/kg os): -19,1% | Beta/alfa ratio: Inhibition towards Group 2 ([1]; 25 mg/kg os): -28,2% | Total cholesterol: Inhibition in comparison with Group 2 ([1]; 25 mg/kg os): -15,9% | Total lipids: Inhibition in comparison with Group 2 ([1]; 25 mg/kg os): -21,1% | Triglycerids: Inhibition in comparison with Group 2 ([1]; 25 mg/kg os): -11,0% | Alfa-Lipoproteins Average ± SD [1, 6]: 41,7 ± 11,3 mg/100 ml serum | Beta-Lipoproteins Average ± SD [1, 6]: 133,7 ± 60,4 mg/100 ml serum | Beta/alfa ratio Average ± SD [1, 6]: 3,88 ± 1,73 mg/100 ml serum | Total cholesterol Average ± SD [1, 6]: 175,47 ± 54,26 mg/100 ml serum | Total lipids Average ± SD [1, 6]: 2517,3 ± 557,6 mg/100 ml serum | Triglycerids Average ± SD [1, 6]: 893,6 ± 298,1 mg/100 ml serum | Alfa-Lipoproteins: Increase towards Group 2 ([1]; 50 mg/kg os): +86,1% | Beta-Lipoproteins: Inhibition towards Group 2 ([1]; 50 mg/kg os): -51,2% | Beta/alfa ratio: Inhibition towards Group 2 ([1]; 50 mg/kg os): -68,8% | Total cholesterol: Inhibition in comparison with Group 2 ([1]; 50 mg/kg os): -40,7% | Total lipids: Inhibition in comparison with Group 2 ([1]; 50 mg/kg os): -34,1% | Triglycerids: Inhibition in comparison with Group 2 ([1]; 50 mg/kg os): -31,9% | Alfa-Lipoproteins Average ± SD [1, 7]: 39,64 ± 11,4 mg/100 ml serum | Beta-Lipoproteins Average ± SD [1, 7]: 115,5 ± 58,7 mg/100 ml serum | Beta/alfa ratio Average ± SD [1, 7]: 3,41 ± 2,29 mg/100 ml serum | Total cholesterol Average ± SD [1, 7]: 155,2 ± 50,3 mg/100 ml serum | Total lipids Average ± SD [1, 7]: 2241,14 ± 517,4 mg/100 ml serum | Triglycerids Average ± SD [1, 7]: 628,8 ± 223,0 mg/100 ml serum | Alfa-Lipoproteins: Increase towards Group 2 ([1]; 100 mg/kg os): +76,8% | Beta/alfa ratio: Inhibition towards Group 2 ([1]; 100 mg/kg os): -72,6% | Total cholesterol: Inhibition in comparison with Group 2 ([1]; 100 mg/kg os): -47,6% | Total lipids: Inhibition in comparison with Group 2 ([1]; 100 mg/kg os): -41,3% | Triglycerids: Inhibition in comparison with Group 2 ([1]; 100 mg/kg os): -52,1% | Dose dependence of activity inhibiting the hyperdislipidemia ([1]; 25, 50 and 100 mg/kg oral, Triton WR-1339 rat): depends on the dosage | Solubility in water [2]: pratically insoluble in water | Effect on cholesterol stones ([3]; bile saturated with cholesterol): prevents the formation of cholesterol stones | Dissolution of radiotransparent stones ([3]; under suitable conditions): able to dissolve under suitable conditions the radiotransparent stones

CC(CCC(=O)O)C1CCC2C3C(OS(=O)(=O)O)CC4CC(OS(=O)(=O)O)CCC4(C)C3CCC12C (stereo not drawn) [ursodeoxycholic O-sulphate]
Acidity ([4]; free acid): very high acidity | Solubility in water [4]: very soluble in water | Solubility in water ([4]; listed as ursosulphate acid): very soluble in water with acid reaction
